# Laboratory results taken from ChEMBL document CHEMBL3885881, “DrugMatrix”.
# Species on record: Rattus norvegicus
# Format: toxicity, organism-based, Sprague-Dawley
# Conditions: in vivo, po, route oral GAVAGE, vehicle 100 % SALINE; for ABSOLUTE EOSINOPHIL / ABSOLUTE LYMPHOCYTE / ABSOLUTE MONOCYTE / ABSOLUTE SEGMENTED NEUTROPHIL / BASOPHIL / EOSINOPHIL / ERYTHROCYTE COUNT / HEMATOCRIT / HEMOGLOBIN / LEUKOCYTE COUNT / LYMPHOCYTE / MEAN CORPUSCULAR HEMOGLOBIN / MEAN CORPUSCULAR HEMOGLOBIN CONCENTRATION / MEAN CORPUSCULAR VOLUME / MONOCYTE / NEUTROPHIL / NUCLEATED RED BLOOD CELLS / PLATELET COUNT: tissue Blood; for ALANINE AMINOTRANSFERASE / ALBUMIN / ALKALINE PHOSPHATASE / ASPARTATE AMINOTRANSFERASE / BLOOD UREA NITROGEN / CARBON DIOXIDE / CHLORIDE / CHOLESTEROL / CREATINE PHOSPHOKINASE / CREATININE / GLUCOSE / LACTATE DEHYDROGENASE / LIPASE / PHOSPHORUS / POTASSIUM / SODIUM / TOTAL BILIRUBIN / TOTAL PROTEIN / URIC ACID: tissue Plasma
# [1] = 0 mg/kg, 6 h, vehicle control, dose level Control, time 0.25 day
# [2] = 0 mg/kg, 24 h, vehicle control, dose level Control, time 1 day
# [3] = 10 mg/kg, 6 h, dose level Low, time 0.25 day
# Description: DrugMatrix - Regimen: Single
structure (smiles),measurement,setting,value
O=[As][O-].[Na+] [SODIUM ARSENITE],ABSOLUTE EOSINOPHIL,[1],24 CELLS/uL
same,ABSOLUTE LYMPHOCYTE,[1],11958.17 CELLS/uL
same,ABSOLUTE MONOCYTE,[1],398.83 CELLS/uL
same,ABSOLUTE SEGMENTED NEUTROPHIL,[1],1252.33 CELLS/uL
same,BASOPHIL,[1],0%
same,EOSINOPHIL,[1],0.17%
same,ERYTHROCYTE COUNT,[1],5.37 x10E6/uL
same,HEMATOCRIT,[1],35.6%
same,HEMOGLOBIN,[1],13.05 G/DL
same,LEUKOCYTE COUNT,[1],13.63 x10E3/uL
same,LYMPHOCYTE,[1],87.67%
same,MEAN CORPUSCULAR HEMOGLOBIN,[1],24.28 pg
same,MEAN CORPUSCULAR HEMOGLOBIN CONCENTRATION,[1],36.67 G/DL
same,MEAN CORPUSCULAR VOLUME,[1],66.28 fL
same,MONOCYTE,[1],2.83%
same,NEUTROPHIL,[1],9.33%
same,NUCLEATED RED BLOOD CELLS,[1],0 /100WBC
same,PLATELET COUNT,[1],947.83 x10E3/uL
same,ALANINE AMINOTRANSFERASE,[1],51 u/L
same,ALBUMIN,[1],4.02 G/DL
same,ALKALINE PHOSPHATASE,[1],312.33 u/L
same,ASPARTATE AMINOTRANSFERASE,[1],98.17 u/L
same,BLOOD UREA NITROGEN,[1],9.5 mg/dL
same,CARBON DIOXIDE,[1],18.83 mmol/L
same,CHLORIDE,[1],103.5 MEQ/L
same,CHOLESTEROL,[1],69.5 mg/dL
same,CREATINE PHOSPHOKINASE,[1],580.17 u/L
same,CREATININE,[1],0.53 mg/dL
same,GLUCOSE,[1],175.67 mg/dL
same,LACTATE DEHYDROGENASE,[1],295.5 u/L
same,LIPASE,[1],8.17 u/L
same,PHOSPHORUS,[1],14.12 mg/dL
same,POTASSIUM,[1],5.77 MEQ/L
same,SODIUM,[1],144.13 MEQ/L
same,TOTAL BILIRUBIN,[1],0.12 mg/dL
same,TOTAL PROTEIN,[1],4.87 G/DL
same,URIC ACID,[1],2.25 mg/dL
same,ABSOLUTE EOSINOPHIL,[2],0 CELLS/uL
same,ABSOLUTE LYMPHOCYTE,[2],12232.83 CELLS/uL
same,ABSOLUTE MONOCYTE,[2],20.33 CELLS/uL
same,ABSOLUTE SEGMENTED NEUTROPHIL,[2],780.17 CELLS/uL
same,BASOPHIL,[2],0%
same,EOSINOPHIL,[2],0%
same,ERYTHROCYTE COUNT,[2],5.18 x10E6/uL
same,HEMATOCRIT,[2],33.48%
same,HEMOGLOBIN,[2],13.22 G/DL
same,LEUKOCYTE COUNT,[2],13.03 x10E3/uL
same,LYMPHOCYTE,[2],93.33%
same,MEAN CORPUSCULAR HEMOGLOBIN,[2],25.57 pg
same,MEAN CORPUSCULAR HEMOGLOBIN CONCENTRATION,[2],39.52 G/DL
same,MEAN CORPUSCULAR VOLUME,[2],64.65 fL
same,MONOCYTE,[2],0.17%
same,NEUTROPHIL,[2],6.5%
same,NUCLEATED RED BLOOD CELLS,[2],0 /100WBC
same,PLATELET COUNT,[2],931.5 x10E3/uL
same,ALANINE AMINOTRANSFERASE,[2],60.83 u/L
same,ALBUMIN,[2],4.18 G/DL
same,ALKALINE PHOSPHATASE,[2],283.33 u/L
same,ASPARTATE AMINOTRANSFERASE,[2],80.5 u/L
same,BLOOD UREA NITROGEN,[2],11.83 mg/dL
same,CARBON DIOXIDE,[2],35.33 mmol/L
same,CHLORIDE,[2],98.5 MEQ/L
same,CHOLESTEROL,[2],80 mg/dL
same,CREATINE PHOSPHOKINASE,[2],181.83 u/L
same,CREATININE,[2],0.2 mg/dL
same,GLUCOSE,[2],142.67 mg/dL
same,LACTATE DEHYDROGENASE,[2],65.5 u/L
same,LIPASE,[2],9.83 u/L
same,PHOSPHORUS,[2],9.82 mg/dL
same,POTASSIUM,[2],5.69 MEQ/L
same,SODIUM,[2],143.35 MEQ/L
same,TOTAL BILIRUBIN,[2],0.15 mg/dL
same,TOTAL PROTEIN,[2],6.2 G/DL
same,URIC ACID,[2],0.42 mg/dL
same,ABSOLUTE EOSINOPHIL,[3],25.17 CELLS/uL
same,ABSOLUTE LYMPHOCYTE,[3],12416.17 CELLS/uL
same,ABSOLUTE MONOCYTE,[3],214.33 CELLS/uL
same,ABSOLUTE SEGMENTED NEUTROPHIL,[3],1561 CELLS/uL
same,BASOPHIL,[3],0%
same,EOSINOPHIL,[3],0.17%
same,ERYTHROCYTE COUNT,[3],5.72 x10E6/uL
same,HEMATOCRIT,[3],37.97%
same,HEMOGLOBIN,[3],13.92 G/DL
same,LEUKOCYTE COUNT,[3],14.22 x10E3/uL
same,LYMPHOCYTE,[3],87.33%
same,MEAN CORPUSCULAR HEMOGLOBIN,[3],24.38 pg
same,MEAN CORPUSCULAR HEMOGLOBIN CONCENTRATION,[3],36.67 G/DL
same,MEAN CORPUSCULAR VOLUME,[3],66.45 fL
same,MONOCYTE,[3],1.5%
same,NEUTROPHIL,[3],11%
same,NUCLEATED RED BLOOD CELLS,[3],0 /100WBC
same,PLATELET COUNT,[3],1120 x10E3/uL
same,ALANINE AMINOTRANSFERASE,[3],87.17 u/L
same,ALBUMIN,[3],4.02 G/DL
same,ALKALINE PHOSPHATASE,[3],245.5 u/L
same,ASPARTATE AMINOTRANSFERASE,[3],141.33 u/L
same,BLOOD UREA NITROGEN,[3],12.83 mg/dL
same,CARBON DIOXIDE,[3],19 mmol/L
same,CHLORIDE,[3],104 MEQ/L
same,CHOLESTEROL,[3],63.17 mg/dL
same,CREATINE PHOSPHOKINASE,[3],934.5 u/L
same,CREATININE,[3],0.27 mg/dL
same,GLUCOSE,[3],184.33 mg/dL
same,LACTATE DEHYDROGENASE,[3],393.33 u/L
same,LIPASE,[3],8.83 u/L
same,PHOSPHORUS,[3],14.3 mg/dL
same,POTASSIUM,[3],6.23 MEQ/L
same,SODIUM,[3],142.98 MEQ/L
same,TOTAL BILIRUBIN,[3],0.12 mg/dL
same,TOTAL PROTEIN,[3],5.28 G/DL
same,URIC ACID,[3],2.03 mg/dL
